From ChEMBL document CHEMBL5620427, “Recent advances in Fragment-based strategies against tuberculosis” (Eur J Med Chem, 2023) come the findings set out here.

The ΔTm is the shift of the melting midpoint relative to a reference. The MIC50 is an inhibitory concentration at the 50% level, which refers to growth in some studies and to a panel of isolates in others. What is called Kd is the equilibrium constant for the complex coming apart. As a reminder, the EC50 is the concentration needed to bring the measured effect to its halfway point. A word on the MIC99: it is the lowest concentration that inhibits either 99% of growth or 99% of the strains tested, depending on the study. Broadly, the MIC is the least concentration at which growth counts as inhibited. In general, MIC90 refers to the lowest concentration that inhibits either 90% of growth or 90% of the strains tested, depending on the study.

In brackets after ≈: the same amount, converted by molar mass.

A short description of series [1]: Inhibition of N-terminal His-tagged wild type Mycobacterium tuberculosis Rv1837c GlcB expressed in Escherichia coli BL21 by chromatography method.
In series [2] the target is HTH-type transcriptional regulator EthR (Mycobacterium tuberculosis) (UniProt P9WMC1). As to the kind of experiment: Binding affinity to Mycobacterium tuberculosis EthR assessed as change in melting temperature at 100 uM by thermal shift assay.
The target in series [3] is HTH-type transcriptional regulator EthR (Mycobacterium tuberculosis, UniProt P9WMC1). As to the kind of experiment: Inhibition of Mycobacterium tuberculosis EthR by SPR assay. In general terms: SPR reads the build-up and loss of mass on a sensor chip optically.
The subject of series [4] is Mycobacterium tuberculosis. The experiment in a line: Antimycobacterial activity against Mycobacterium tuberculosis assessed as reduction in microbial growth by broth microdilution method. The series is classed as functional. (Dilution methods test growth across graded concentrations, often in twofold steps.)
The target in series [5] is T1, Enoyl-[acyl-carrier-protein] reductase [NADH] (Mycobacterium tuberculosis, UniProt P9WGR1).
T1 sequence (P9WGR1 whole entry): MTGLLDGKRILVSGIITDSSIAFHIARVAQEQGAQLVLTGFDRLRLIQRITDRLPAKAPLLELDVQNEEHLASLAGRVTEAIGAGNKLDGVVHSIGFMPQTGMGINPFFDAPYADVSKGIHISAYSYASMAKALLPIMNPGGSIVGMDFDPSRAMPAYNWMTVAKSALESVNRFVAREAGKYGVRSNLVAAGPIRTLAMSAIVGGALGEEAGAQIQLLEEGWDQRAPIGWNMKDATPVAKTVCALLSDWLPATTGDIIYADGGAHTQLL
As to the kind of experiment: Binding affinity to Mycobacterium tuberculosis InhA assessed as dissociation constant.

Series [6] can be described thus: Metabolic stability in mouse liver microsomes assessed as intrinsic clearance. The series is classed as ADME, Microsome. As to conditions: read-out: CLH. Background: Liver microsomes are a subcellular fraction often used to study metabolism.
For series [7], the system named is Mycobacterium tuberculosis. The experiment in a line: Binding affinity to Mycobacterium tuberculosis RV0078 EthR2 assessed as change in melting temperature at 1 uM by thermal shift assay.
Series [8] in a line: Inhibition of Mycobacterium tuberculosis RV0078 EthR2.
A short description of series [9]: Metabolic stability in CD-1 mouse liver microsomes assessed as intrinsic clearance at 20 uM measured after 40 mins by LC-MS/MS analysis. The series is classed as ADME, Microsome.
The target in series [10] is HTH-type transcriptional regulator EthR (Mycobacterium tuberculosis) (UniProt P9WMC1). The experiment in a line: Binding affinity to Mycobacterium tuberculosis EthR assessed as change in melting temperature at 20 uM by thermal shift assay.
The subject of series [11] is Mycobacterium tuberculosis. As to the kind of experiment: Antimycobacterial activity against Mycobacterium tuberculosis infected in mouse macrophage cells assessed as bacterial growth inhibition. It is filed as functional, organism-based.
For series [12], the system named is Mycobacterium tuberculosis. As to the kind of experiment: Antimycobacterial activity against Mycobacterium tuberculosis Erdman infected in BALB/c mouse model assessed as log reduction of bacterial load in lung at 200 mg/kg administered via oral gavage for 2 weeks. The series is classed as functional.
For series [13], the target named is T1, Enoyl-[acyl-carrier-protein] reductase [NADH]. As to the kind of experiment: Inhibition of Mycobacterium tuberculosis InhA.
Series [14] has as its target T2, Dihydrofolate reductase (Mycobacterium tuberculosis) (UniProt P9WNX1).
T2 sequence (whole entry): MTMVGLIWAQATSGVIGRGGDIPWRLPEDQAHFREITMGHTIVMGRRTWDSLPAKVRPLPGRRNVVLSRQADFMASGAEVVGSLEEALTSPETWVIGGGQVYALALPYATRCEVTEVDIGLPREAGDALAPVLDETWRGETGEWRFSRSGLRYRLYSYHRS
As to the kind of experiment: Binding affinity to Mycobacterium tuberculosis DHFR assessed as change in melting temperature at 5 uM by thermal shift assay.

Another series concerns the target T3, Dihydrofolate reductase (Mycobacterium tuberculosis, UniProt P9WNX1).
T3 sequence (P9WNX1 whole entry): T2 sequence (whole entry)
The experiment in a line: Binding affinity to Mycobacterium tuberculosis DHFR assessed as dissociation constant.

The test system of series [15] is Mycobacterium tuberculosis. The experiment in a line: Antibacterial activity against Mycobacterium tuberculosis ATCC 27294 assessed as reduction in bacterial cell growth measured after 48 hrs by broth microdilution method. It is filed as functional.
Series [16] deals with Mycobacterium tuberculosis. As to the kind of experiment: Antimycobacterial activity against Mycobacterium tuberculosis H37Rv ATCC 25618 assessed as bacterial growth inhibition. It is filed as functional.
The subject of series [17] is Mycobacterium tuberculosis. As to the kind of experiment: Binding affinity to Mycobacterium tuberculosis RV0078 EthR2 assessed as change in melting temperature at 20 uM by thermal shift assay.
Series [18] has as its system Mycobacterium tuberculosis. As to the kind of experiment: Antimycobacterial activity against Mycobacterial tuberculosis assessed as log reduction of bacterial load. It is filed as functional.
In series [19] the test system is Mycobacterium tuberculosis. As to the kind of experiment: Antimycobacterial activity against Mycobacterium tuberculosis H37Rv assessed as reduction in bacterial growth incubated for 7 days by resazurin dye based assay. The series is classed as functional. The following applies: 168 h, time 7 day.
The test system of series [20] is Mycobacterium tuberculosis. As to the kind of experiment: Antimycobacterial activity against Mycobacterium tuberculosis H37Rv assessed as reduction in bacterial cell growth measured after 7 days by resazurin dye based analysis. It is filed as functional. As to conditions: 168 h, time 7 day.
Series [21] has as its system Mycobacterium tuberculosis. The experiment in a line: Antimycobacterial activity against Mycobacterium tuberculosis […] assessed as reduction in bacterial growth incubated for 48 hrs by resazurin dye based analysis. It is filed as functional.
Series [22] has as its system Mycobacterium tuberculosis. As to the kind of experiment: Antibacterial activity against Mycobacterium tuberculosis ATCC 27294 assessed as inhibition of cell growth incubated for 7 days by broth dilution method. The series is classed as functional. The following applies: ATCC 27294, 168 h, time 7 day.

Sequence of HTH-type transcriptional regulator EthR (Mycobacterium tuberculosis) (P9WMC1 whole entry): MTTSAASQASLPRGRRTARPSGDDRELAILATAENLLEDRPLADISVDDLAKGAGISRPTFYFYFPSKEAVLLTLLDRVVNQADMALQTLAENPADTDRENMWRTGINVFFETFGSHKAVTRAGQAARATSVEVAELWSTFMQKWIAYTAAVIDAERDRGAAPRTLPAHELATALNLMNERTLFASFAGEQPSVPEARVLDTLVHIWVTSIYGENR
Sequence of HTH-type transcriptional regulator EthR (P9WMC1 whole entry): as above

Regarding `O=C(O)/C(O)=C/C(=O)c1ccc2[nH]ccc2c1`, the IC50 in [1] came to 0.02 µM.
For the molecule `CNCc1ccc(N2CCCCC2)cc1`, the shift in melting temperature (ΔTm) in [2] was found to be 3.8 °C. The IC50 in series [3] was more than 100 µM.
Take `O=C(OCCCC1CCCC1)N1CCCC1`: the MIC50 in series [4] was found to be 1 µM.
For `Cc1cc(N)n(Cc2ccc(C(=O)NCc3ccc(F)cc3Cl)cc2)n1`, in series [5], the Kd is 8 µM.
With `O=C1CC2CCC(C1)N2CCc1ccc(Cl)cc1`, in [6], the microsomal CLint worked out at 60 µL/min/mg. Moreover, in series [7], the shift in melting temperature (ΔTm) turned out to be 3.4 °C. The same molecule yielded an IC50 in series [8] of 1 µM.
For `O=C(NCCC(F)(F)F)c1ccc(-c2noc(C3CC3)n2)cc1`, in series [9], the CLH was found to be 69 µL/min. Besides, in [10], the shift in melting temperature (ΔTm) stood at 10.2 °C. Moreover, in series [11], the EC50 amounted to 0.07 µM. Further, the “log(activity)” value in series [12] was found to be 2.
As for `O=C(NCc1cccnc1)NC1CCCCC1`, the IC50 in series [13] (read-out: pIC50 (converted)) is more than 1000 µM.
Turning to `O=C(CCc1c[nH]c2ccccc12)Nc1c(C(=O)O)cnn1-c1ccccc1`, the ΔTm in [14] is 5.1 °C. Moreover, the Kd at Dihydrofolate reductase was found to be 0.017 µM.
Take `CCOC(=O)c1cc(Cl)c(O)c(Cl)c1`: in series [15], the MIC99 is less than 53 µM.
As to `Nc1c(Cl)cc(S(N)(=O)=O)cc1Cl`, the minimal inhibitory concentration (MIC) in series [16] is 833 µM (≈ 201 µg/mL).
Take `COc1ccc(CCC(=O)N2CCC(SS[C@@H]3CCN(C(=O)CCc4ccc(OC)cc4)C3)C2)cc1` (stereo partly drawn): the IC50 in [3] was 1.1 µM.
For `O=C1CC2CCC(C1)N2CCc1ccc(C(F)(F)F)cc1`, the ΔTm in [17] amounted to 0.6 °C. Also, the IC50 in series [8] is 0.2 µM.
As for `CCNc1nnc(Cn2nc(C)cc2C)s1`, the IC50 in series [13] (read-out: pIC50 (converted)) was more than 1000 µM.
Still for that read-out and setting: the value for `CC(=O)NC1CCN(c2ncccn2)CC1` was more than 1000 µM.
`CC1(C)CCC(Cc2cc(O)c(-c3ccccc3)c(=O)[nH]2)CC1`: in series [13] (read-out: pIC50 (converted)), the IC50 is 10 µM. For the same molecule, the “log(activity)” value in series [18] is given as 1.5.
Turning to `O=C(O)/C=C/c1cccc(C(F)(F)F)c1`, the ΔTm in series [10] came to 3.2 °C.
`Cc1cc(N)n(Cc2ccccc2)n1`: the Kd in [5] worked out at 3.3 µM.
For the molecule `CC(C)(C)OC(=O)Nc1ccc(I)cc1C(=O)O`, the IC50 in series [13] (read-out: IC50) is 280 µM. Besides, in series [19], the MIC90 was determined as 300 µM (≈ 109 µg/mL).
With `N#Cc1ccc(N2CCC(CCC(=O)N3CCCC3)CC2)cc1`, the ΔTm in series [2] amounted to 7.5 °C.
With `COc1ccc(-c2nc(O)c3ccccc3n2)cc1`, the MIC99 in series [20] was 31.5 µg/mL (≈ 125 µM).
`NS(=O)(=O)c1cc(Cl)cc(Cl)c1`: the MIC99 in [15] is 111 µM (≈ 25.1 µg/mL).
Consider `Cc1ccn(C(C)c2nnc(Nc3ccn(Cc4c(F)cccc4Cl)n3)s2)n1` (stereo not drawn), for which, in series [5], the Kd was determined as 6.3 µM.
On to `O=C(CCC1CCCC1)N1CCCC1`, for which the thermal shift (ΔTm) in series [2] is 3 °C.
In [1], `O=C(O)/C(O)=C/C(=O)c1ccccc1Br` displayed an IC50 of 0.6 µM. Also, the MIC99 in series [21] amounted to 6.25 µM (≈ 1.69 µg/mL).
As to `O=C(CCCC1CCCCC1)N1CCCC1`, the MIC50 in series [4] is 1 µM.
Take `Cc1c(C(=O)O)cnn1-c1ccccc1`: the ΔTm in series [14] turned out to be 1.2 °C. Besides, at Dihydrofolate reductase, the Kd was determined as 0.64 µM.
Turning to `Cc1cncc(CNC(=O)NC2CCN(c3ncccn3)CC2)c1`, the dissociation constant (Kd) in [5] came out at 4.7 µM.
Take `O=C(O)c1cc(Cl)c(O)c(Cl)c1`: the minimum inhibitory concentration (MIC) in series [22] stood at 971 µM (≈ 201 µg/mL).
`Cc1cc(N)n(Cc2nnc(Nc3ccn(Cc4c(F)cccc4Cl)n3)s2)n1`: the dissociation constant (Kd) in series [5] is 7.1 µM.
Turning to `O=C(Nc1ccc(I)cc1C(=O)O)c1ccc(Cl)c(Cl)c1`, in [13] (read-out: IC50), the IC50 was determined as 38 µM. Further, the MIC90 in [19] is 300 µM (≈ 131 µg/mL).
